Test results as given in patent US10010545B1, “Antibiotic compositions and methods of use” (University of South Florida, priority 2013, dated 2018).

What was measured:
Acinetobacter baumannii = test: Growth testing against ESKAPE pathogens: Acinetobacter baumannii; format: cell-based; parameters: key: Growth; X: No Growth
Method: (§1) Six analogs (FIG. 2) of the ciprofloxacin-N thiolated β-lactam were successfully synthesized. All these compounds were then tested against ESKAPE pathogens for bioactivity. The ESKAPE pathogens are a collection of six deadly superbugs, Enterococcus faecium, Staphylococcus aureus, Klebsiella pneumoniae, Acinetobacter baumannii, Pseudomonas aeruginosa, and Enterobacter species. […] G denotes growth and X denotes no growth in the tables.

Pseudomonas aeruginosa = test: Growth testing against ESKAPE pathogens: Pseudomonas aeruginosa; format: cell-based; parameters: key: Growth; X: No Growth
Method: as §1

Enterococcus faecium = test: Growth testing against ESKAPE pathogens: Enterococcus faecium; format: cell-based; parameters: key: Growth; X: No Growth
Method: as §1

Staphylococcus aureus = test: Growth testing against ESKAPE pathogens: Staphylococcus aureus; format: cell-based; parameters: key to Activity against Staphylococcus aureus (growth observed): Growth; X: No Growth
Method: as §1

Klebesiella pneumonia = test: Growth testing against ESKAPE pathogens: Klebesiella pneumonia; format: cell-based, Klebsiella pneumoniae; parameters: key: Growth; X: No Growth
Method: as §1

CCCCCCC(=O)N1CCN(c2cc3c(cc2F)c(=O)c(C(=O)OC2C(=O)N(SC)C2c2ccccc2)cn3C2CC2)CC1 (stereo not shown) [Lactam 127]
G: Activity against Acinetobacter baumannii (growth observed) (Acinetobacter baumannii; 1 μg/ml) | Activity against Acinetobacter baumannii (growth observed) (Acinetobacter baumannii; 2 μg/ml) | Activity against Acinetobacter baumannii (growth observed) (Acinetobacter baumannii; 3 μg/ml) | Activity against Acinetobacter baumannii (growth observed) (Acinetobacter baumannii; 4 μg/ml) | Activity against Acinetobacter baumannii (growth observed) (Acinetobacter baumannii; 5 μg/ml) | Activity against Acinetobacter baumannii (growth observed) (Acinetobacter baumannii; 6 μg/ml) | Activity against Acinetobacter baumannii (growth observed) (Acinetobacter baumannii; 7 μg/ml) | Activity against Acinetobacter baumannii (growth observed) (Acinetobacter baumannii; 8 μg/ml) | Activity against Acinetobacter baumannii (growth observed) (Acinetobacter baumannii; 9 μg/ml) | Activity against Acinetobacter baumannii (growth observed) (Acinetobacter baumannii; 10 μg/ml) | Activity against Acinetobacter baumannii (growth observed) (Acinetobacter baumannii; 25 μg/ml) | Activity against Pseudomonas aeruginosa (growth observed) (Pseudomonas aeruginosa; 1 μg/ml) | Activity against Pseudomonas aeruginosa (growth observed) (Pseudomonas aeruginosa; 2 μg/ml) | Activity against Pseudomonas aeruginosa (growth observed) (Pseudomonas aeruginosa; 3 μg/ml) | Activity against Pseudomonas aeruginosa (growth observed) (Pseudomonas aeruginosa; 4 μg/ml) | Activity against Pseudomonas aeruginosa (growth observed) (Pseudomonas aeruginosa; 5 μg/ml) | Activity against Pseudomonas aeruginosa (growth observed) (Pseudomonas aeruginosa; 6 μg/ml) | Activity against Pseudomonas aeruginosa (growth observed) (Pseudomonas aeruginosa; 7 μg/ml) | Activity against Pseudomonas aeruginosa (growth observed) (Pseudomonas aeruginosa; 8 μg/ml) | Activity against Pseudomonas aeruginosa (growth observed) (Pseudomonas aeruginosa; 9 μg/ml) | Activity against Pseudomonas aeruginosa (growth observed) (Pseudomonas aeruginosa; 10 μg/ml) | Activity against Pseudomonas aeruginosa (growth observed) (Pseudomonas aeruginosa; 25 μg/ml) | Activity against Enterococcus faecium (growth observed) (Enterococcus faecium; 1 μg/ml) | Activity against Enterococcus faecium (growth observed) (Enterococcus faecium; 2 μg/ml) | Activity against Enterococcus faecium (growth observed) (Enterococcus faecium; 3 μg/ml) | Activity against Enterococcus faecium (growth observed) (Enterococcus faecium; 4 μg/ml) | Activity against Enterococcus faecium (growth observed) (Enterococcus faecium; 5 μg/ml) | Activity against Enterococcus faecium (growth observed) (Enterococcus faecium; 6 μg/ml) | Activity against Enterococcus faecium (growth observed) (Enterococcus faecium; 7 μg/ml) | Activity against Enterococcus faecium (growth observed) (Enterococcus faecium; 8 μg/ml) | Activity against Enterococcus faecium (growth observed) (Enterococcus faecium; 9 μg/ml) | Activity against Enterococcus faecium (growth observed) (Enterococcus faecium; 10 μg/ml) | Activity against Enterococcus faecium (growth observed) (Enterococcus faecium; 25 μg/ml) | Activity against Staphylococcus aureus (growth observed) (Staphylococcus aureus; 1 μg/ml) | Activity against Staphylococcus aureus (growth observed) (Staphylococcus aureus; 2 μg/ml) | Activity against Staphylococcus aureus (growth observed) (Staphylococcus aureus; 3 μg/ml) | Activity against Staphylococcus aureus (growth observed) (Staphylococcus aureus; 4 μg/ml) | Activity against Staphylococcus aureus (growth observed) (Staphylococcus aureus; 5 μg/ml) | Activity against Staphylococcus aureus (growth observed) (Staphylococcus aureus; 6 μg/ml) | Activity against Staphylococcus aureus (growth observed) (Staphylococcus aureus; 7 μg/ml) | Activity against Staphylococcus aureus (growth observed) (Staphylococcus aureus; 8 μg/ml) | Activity against Staphylococcus aureus (growth observed) (Staphylococcus aureus; 9 μg/ml) | Activity against Staphylococcus aureus (growth observed) (Staphylococcus aureus; 10 μg/ml) | Activity against Staphylococcus aureus (growth observed) (Staphylococcus aureus; 25 μg/ml) | Activity against Klebesiella pneumonia (growth observed) (Klebesiella pneumonia; 1 μg/ml) | Activity against Klebesiella pneumonia (growth observed) (Klebesiella pneumonia; 2 μg/ml) | Activity against Klebesiella pneumonia (growth observed) (Klebesiella pneumonia; 3 μg/ml) | Activity against Klebesiella pneumonia (growth observed) (Klebesiella pneumonia; 4 μg/ml) | Activity against Klebesiella pneumonia (growth observed) (Klebesiella pneumonia; 5 μg/ml) | Activity against Klebesiella pneumonia (growth observed) (Klebesiella pneumonia; 6 μg/ml) | Activity against Klebesiella pneumonia (growth observed) (Klebesiella pneumonia; 7 μg/ml) | Activity against Klebesiella pneumonia (growth observed) (Klebesiella pneumonia; 8 μg/ml) | Activity against Klebesiella pneumonia (growth observed) (Klebesiella pneumonia; 9 μg/ml) | Activity against Klebesiella pneumonia (growth observed) (Klebesiella pneumonia; 10 μg/ml) | Activity against Klebesiella pneumonia (growth observed) (Klebesiella pneumonia; 25 μg/ml)
